According to patent US7094753B2, “Somatostatin analog and uses thereof” (Societe de Conseils de Recherches et d'Applications …, priority 2001, dated 2006):
Where two headings read alike, the source gives them in different places. Bridge positions count the residues as written; N and C are the ends. Square brackets hold non-standard residues; d marks the D form. Peptide text beside a SMILES is read from it.

Key:
[1] = tested on: GH-secreting adenoma cells; conditions: for suppression of GH: 10 nM; for mean maximal GH suppression: at nanomolar concentrations; for EC50: read-out: EC50 of inhibition of GH release
Protocol: (§1) GH and PRL were measured using commercial immunoradiometric kits (Immunotech, Marseilles, France). Normal GH values ranged from 0.2–2.4 μg/L; normal PRL values ranged from 1–24 μg/L in women and from 1–17 μg/L in men. After an ethanol-acid extraction, the plasma IGF-I assay was performed using the IGF-I RIA kit from Nichols Institute Diagnostics (San Juan Capistrano, Calif.).
(§2) A portion of each tumor obtained at surgery was dissociated by mechanical and enzymatic methods. […] Tumor cells were initially cultured in DMEM supplemented with 10% FCS for 3 days. On day 3, the cells were washed and plated in multiwell culture dishes (Costar 3524, Brumath, France) coated with extracellular matrix from bovine endothelial corneal cells as previously described (Jaquet P, et al., 1985, Horm Res. 22:153–163.) at a density of 2×10^4 cells/well. When they were attached to the matrix on days 5–8, depending on the culture, the medium was removed and replaced with DMEM supplemented with 2% FCS, antibiotics, transferrin, and selenium as previously described (Jaquet P, et al., 1985, Horm Res. 22:153–163.). […] Each drug concentration was tested in quadruplicate.
(§3) SRIF-14 was purchased from Sigma (Saint-Quentin Fallavier, France). […] The native SRIF and SRIF analogs were dissolved in 0.01 mol/L acetic acid containing 0.1% purified serum albumin (Life Technologies, Inc., Cergy-Pontoise, France). The drugs were stored at −80 C. as 10^−3 mol/L solutions. For each experiment, fresh working solutions were prepared from a new aliquot.
(§4) The results are presented as the mean±SEM. Statistical significance between two unpaired groups was determined by the Mann-Whitney test. To measure the strength of association between the pairs of variables without specifying dependencies, Spearman order correlation's were used. P<0.05 was considered significant for all tests.

[2] = tested on: mixed GH-/PRL-secreting tumor cells; experiment: Inhibition of PRL release in mixed GH-/PRL-secreting tumor cell cultures; format: cell-based, human; conditions: five tumor cell cultures (A1, A2, A7, A9, A10); for mean maximal PRL suppression: at 10 nmol/L
Protocol: as §1, §2, §3, §4

GH = experiment: Acute octreotide test in acromegalic patients (GH decrease); format: in vivo, human; conditions: for mean GH suppression: single 200 μg injection, GH 2–6 h after injection vs basal; for Percent inhibition vs. GH basal value: 2–6 h after 200 μg sc; for GH under octreotide: mean GH 2–6 h after 200 μg sc
Protocol: Ten acromegalic patients (seven women and three men), aged 26–62 years, presenting with macroadenoma were studied. Their endocrine status and the neuroradiological characterization of the pituitary adenomas were documented before treatment. Basal GH levels were the mean of three random samples obtained between 0800–0900 h. The basal IGF-I value was evaluated under fasting conditions between 0800–0900 h. […] All patients underwent transsphenoidal surgery.
as §1

[3] = octreotide partially responsive tumors (A6–A10)
[4] = octreotide-sensitive tumors (A1–A5)

Molecule: C[C@H](N)C(=O)NCC(=O)N[C@H]1CSSC[C@@H](C(=O)O)NC(=O)[C@H](CO)NC(=O)[C@H]([C@@H](C)O)NC(=O)[C@H](Cc2ccccc2)NC(=O)[C@H]([C@@H](C)O)NC(=O)[C@H](CCCCN)NC(=O)[C@H](Cc2c[nH]c3ccccc23)NC(=O)[C@H](Cc2ccccc2)NC(=O)[C@H](Cc2ccccc2)NC(=O)[C@H](CC(N)=O)NC(=O)[C@H](CCCCN)NC1=O [Somatostatin-14]
- maximal GH suppression compared with Compound B [1, 3]: equally achieved
- dose-related inhibition of PRL release compared with Compound B [2]: similarly achieved

Molecule: CC(C)[C@@H]1NC(=O)[C@H](CCCCN)NC(=O)[C@@H](Cc2c[nH]c3ccccc23)NC(=O)[C@H](Cc2ccc(O)c(I)c2)NC(=O)[C@@H](NC(=O)[C@H](N)Cc2ccccc2)CSSC[C@@H](C(=O)N[C@H](C(N)=O)[C@@H](C)O)NC1=O [Formula (I), D-Phe-c(Cys-Tyr(I)-D-Trp-Lys-Val-Cys)-Thr-NH2]
- maximal GH suppression [1, 3]: 44±5%
- suppression of GH [1, 3]: 44±5%
- mean maximal GH suppression [1, 4]: 44±5%
- mean maximal PRL suppression [2]: 51±5%

Molecule: C[C@@H](O)[C@@H]1NC(=O)[C@H](CCCCN)NC(=O)[C@@H](Cc2c[nH]c3ccccc23)NC(=O)[C@H](Cc2ccccc2)NC(=O)[C@H](Cc2ccccc2)NC(=O)[C@@H](N)CSSC[C@@H](C(N)=O)NC(=O)[C@H](Cc2ccccc2)NC1=O [Compound B] (H-CFF[dW]KTFC-NH2; disulfide 1-8)
- maximal GH suppression [1, 3]: 38±7%
- concentration producing maximal inhibition of GH release [1, 4]: 10 nmol/L
- mean maximal PRL inhibition [2]: 52±6%

Molecule: Octreotide
- suppression of GH [1, 3]: 26±7%
- mean maximal GH suppression [1, 4]: 36±7%
- EC50 ([1]; cultures from the 5 octreotide partially responsive tumors (A6–A10)): 0.2 ± 0.145 nM
- EC50 ([1]; cultures from the 5 octreotide-sensitive tumors (A1–A5), 8-h period): 0.055 ± 0.015 nM
- mean maximal PRL suppression [2]: 34±7%
- mean GH suppression (GH; five full octreotide responders): 79±7%
- mean GH suppression (GH; five partial octreotide responders): 33±6%
- Percent inhibition vs. GH basal value (GH; patient A1): 91%
- GH under octreotide (GH; patient A1, basal 11): 1 µg/L
- Percent inhibition vs. GH basal value (GH; patient A2): 82%
- GH under octreotide (GH; patient A2, basal 22): 4 µg/L
- Percent inhibition vs. GH basal value (GH; patient A3): 76%
- GH under octreotide (GH; patient A3, basal 109): 26 µg/L
- Percent inhibition vs. GH basal value (GH; patient A4): 75%
- GH under octreotide (GH; patient A4, basal 141): 36 µg/L
- Percent inhibition vs. GH basal value (GH; patient A5): 75%
- GH under octreotide (GH; patient A5, basal 47): 12 µg/L
- Percent inhibition vs. GH basal value (GH; patient A6): 40%
- GH under octreotide (GH; patient A6, basal 5): 3 µg/L
- Percent inhibition vs. GH basal value (GH; patient A7): 39%
- GH under octreotide (GH; patient A7, basal 26): 15.8 µg/L
- Percent inhibition vs. GH basal value (GH; patient A8): 37%
- GH under octreotide (GH; patient A8, basal 13): 8.2 µg/L
- Percent inhibition vs. GH basal value (GH; patient A9): 29%
- GH under octreotide (GH; patient A9, basal 141): 100 µg/L
- Percent inhibition vs. GH basal value (GH; patient A10): 23%
- GH under octreotide (GH; patient A10, basal 195): 151 µg/L

Molecule: CC[C@@H]1NC(=O)[C@H](CCCCN)NC(=O)[C@@H](Cc2c[nH]c3ccccc23)NC(=O)[C@H](Cc2ccc(O)cc2)NC(=O)[C@@H](NC(=O)[C@@H](Cc2ccccc2)NS(=O)(=O)CCN2CCN(CCO)CC2)CSSC[C@@H](C(=O)N[C@H](C(N)=O)[C@@H](C)O)NC1=O [Compound A]
- maximal GH suppression [1, 3]: 31±5%
- maximal mean GH suppression ([1]; octreotide-sensitive tumors (A1–A5), at 0.1 nmol/L): 41±7%
- mean maximal PRL inhibition [2]: 34±5%
